# Measured values as given in ChEMBL document CHEMBL5543144, “Discovery of a Novel Potent Tetrazole Antifungal Candidate with High Selectivity and Broad Spectrum” (J Med Chem, 2024).
# Active and inactive are the calls of the source. The calls are words filed in the database; no cut-off is given here.
# Tests used:
# Candida albicans [1] = experiment: Antifungal activity against Candida albicans SC5314 assessed as inhibition of fungal growth incubated for 24 hrs by CLSI protocol based microbroth dilution method; format: functional
# Candida parapsilosis = experiment: Antifungal activity against Candida parapsilosis 22019 assessed as inhibition of fungal growth incubated for 24 hrs by CLSI protocol based microbroth dilution method; format: functional; details: Lodderomyces parapsilosis
# Candida tropicalis [2] = experiment: Antifungal activity against Candida tropicalis 2718 assessed as inhibition of fungal growth incubated for 24 hrs by CLSI protocol based microbroth dilution method; format: functional
# Pichia kudriavzevii [3] = experiment: Antifungal activity against Candida krusei 4946 assessed as inhibition of fungal growth incubated for 24 hrs by CLSI protocol based microbroth dilution method; format: functional
# Nakaseomyces glabratus [4] = experiment: Antifungal activity against Candida glabrata 537 assessed as inhibition of fungal growth incubated for 48 hrs by CLSI protocol based microbroth dilution method; format: functional
# Cryptococcus neoformans [5] = experiment: Antifungal activity against Cryptococcus neoformans H99 assessed as inhibition of fungal growth incubated for 72 hrs by CLSI protocol based microbroth dilution method; format: functional
# Aspergillus fumigatus = experiment: Antifungal activity against Aspergillus fumigatus 7544 assessed as inhibition of fungal growth incubated for 48 hrs by CLSI protocol based microbroth dilution method; format: functional
# [Candida] auris [6] = Antifungal activity against fluconazole resistant Candida auris 887 assessed as inhibition of fungal growth incubated for 48 hrs by CLSI protocol based microbroth dilution method; format: functional; details: Candidozyma auris
# [Candida] auris [7] = Antifungal activity against fluconazole resistant Candida auris 888 assessed as inhibition of fungal growth incubated for 48 hrs by CLSI protocol based microbroth dilution method; format: functional; details: Candidozyma auris
# [Candida] auris [8] = Antifungal activity against fluconazole resistant Candida auris D12 assessed as inhibition of fungal growth incubated for 48 hrs by CLSI protocol based microbroth dilution method; format: functional; details: Candidozyma auris
# [Candida] auris [9] = Antifungal activity against fluconazole resistant Candida auris BS12372 assessed as inhibition of fungal growth incubated for 48 hrs by CLSI protocol based microbroth dilution method; format: functional; details: Candidozyma auris
# [Candida] auris [10] = Antifungal activity against fluconazole resistant Candida auris 789 assessed as inhibition of fungal growth incubated for 48 hrs by CLSI protocol based microbroth dilution method; format: functional; details: Candidozyma auris
# [Candida] auris [11] = Antifungal activity against fluconazole resistant Candida auris 791 assessed as inhibition of fungal growth incubated for 48 hrs by CLSI protocol based microbroth dilution method; format: functional; details: Candidozyma auris
# Candida albicans [12] = experiment: Antifungal activity against Candida albicans SC5314 assessed as inhibition of fungal growth at 0.0156 ug/ml incubated for 24 hrs by plate reader analysis; format: functional, organism-based; details: dose 0.0156 µg/ml
# Cryptococcus neoformans [13] = experiment: Antifungal activity against Cryptococcus neoformans H99 assessed as inhibition of fungal growth at 0.125 ug/ml incubated for 48 hrs by plate reader analysis; format: functional, organism-based; details: dose 0.125 µg/ml
# Nakaseomyces glabratus [14] = experiment: Antifungal activity against Candida glabrata 537 assessed as inhibition of fungal growth at 0.25 ug/ml incubated for 24 hrs by plate reader analysis; format: functional, organism-based; details: dose 0.25 µg/ml
# Pichia kudriavzevii [15] = experiment: Antifungal activity against Candida krusei 4946 assessed as inhibition of fungal growth at 0.125 ug/ml incubated for 24 hrs by plate reader analysis; format: functional, organism-based; details: dose 0.125 µg/ml
# Candida tropicalis [16] = experiment: Antifungal activity against Candida tropicalis 2718 assessed as inhibition of fungal growth at 32 ug/ml incubated for 24 hrs by plate reader analysis; format: functional, organism-based; details: dose 32.0 µg/ml
# Candida albicans [17] = experiment: Inhibition of biofilm formation in Candida albicans SC5314 incubated for 24 hrs by XTT reduction assay; format: functional, organism-based; details: dose 0.008-4 µg/ml
# Candida albicans [18] = experiment: Inhibition of biofilm formation in Candida albicans SC5314 at 0.008 ug/ml incubated for 24 hrs by XTT reduction assay relative to control; format: functional
# [19] = Half-life in male ICR (CD-1) mouse at 5 mg/kg, iv by LC-MS/MS analysis; format: ADME, organism-based; details: in vivo
# [20] = AUC (0 to t) in male ICR (CD-1) mouse at 5 mg/kg, iv by LC-MS/MS analysis; format: ADME, organism-based; details: in vivo
# [21] = Clearance in male ICR (CD-1) mouse at 5 mg/kg, iv by LC-MS/MS analysis; format: ADME, organism-based; details: in vivo
# [22] = MRT (0 to t) in male ICR (CD-1) mouse at 5 mg/kg, iv by LC-MS/MS analysis; format: ADME, organism-based; details: in vivo
# [23] = Volume of distribution at steady state in male ICR (CD-1) mouse at 5 mg/kg, iv by LC-MS/MS analysis; format: ADME, organism-based; details: in vivo, read-out: Vdss
# [24] = Cmax in male ICR (CD-1) mouse at 10 mg/kg, po by LC-MS/MS analysis; format: ADME, organism-based; details: in vivo
# [25] = Tmax in male ICR (CD-1) mouse at 10 mg/kg, po by LC-MS/MS analysis; format: ADME, organism-based; details: in vivo
# [26] = Half-life in male ICR (CD-1) mouse at 10 mg/kg, po by LC-MS/MS analysis; format: ADME, organism-based; details: in vivo
# [27] = AUC (0 to t) in male ICR (CD-1) mouse at 10 mg/kg, po by LC-MS/MS analysis; format: ADME, organism-based; details: in vivo
# [28] = MRT (0 to t) in male ICR (CD-1) mouse at 10 mg/kg, po by LC-MS/MS analysis; format: ADME, organism-based; details: in vivo
# [29] = Oral bioavailability in male ICR (CD-1) mouse at 10 mg/kg by LC-MS//MS analysis; format: ADME, organism-based; details: in vivo
# Candida albicans [30] = experiment: Antifungal activity against Candida albicans SC5314 infected in ICR mouse model assessed as fungal burden in kidney at 1 mg/kg/day, po pre-infected with fungi for 2 hrs followed by compound administration and measured after 48 hrs (reference value: 3.89 Log10CFU/g); format: functional
# Candida albicans [31] = experiment: Antifungal activity against Candida albicans SC5314 infected in ICR mouse model assessed as fungal burden in kidney at 5 mg/kg/day, po pre-infected with fungi for 2 hrs followed by compound administration and measured after 48 hrs (reference value: 3.89 Log10CFU/g); format: functional
# Candida albicans [32] = experiment: Antifungal activity against Candida albicans SC5314 infected in ICR mouse model assessed as reduction in fungal burden in kidney pre-infected with fungi for 2 hrs followed by oral administration of compound and measured after 48 hrs; format: functional, organism-based; details: dose 1-5 mg/kg/day
# Candida albicans [33] = experiment: Antifungal activity against Candida albicans SC5314 infected in ICR mouse model assessed as median survival time at 1 mg/kg/day, po pre-infected with fungi for 2 hrs followed by compound administration and measured after 48 hrs (reference value: 3.5 days); format: functional
# Candida albicans [34] = experiment: Antifungal activity against Candida albicans SC5314 infected in ICR mouse model assessed as median survival time at 5 mg/kg/day, po pre-infected with fungi for 2 hrs followed by compound administration and measured after 48 hrs (reference value: 3.5 days); format: functional
# Erythrocyte = experiment: Hemolytic activity in rabbit RBC assessed as hemolysis at 64 ug/ml incubated for 1 hrs by absorbance based assay; format: toxicity, cell-based, Oryctolagus cuniculus; details: dose 64 µg/ml
# [35] = molecular target: T1, Lanosterol 14-alpha demethylase (Candida albicans (strain SC5314 / ATCC MYA-2876) (Yeast), UniProt P10613); experiment: Inhibition of CYP51 in Candida albicans SC5314 assessed as decrease in ergosterol level at 0.008 ug/ml incubated for 8 hrs by GC-MS analysis; details: at 0.008 µg/mL
# [36] = molecular target: T1, Lanosterol 14-alpha demethylase; experiment: Inhibition of CYP51 in Candida albicans SC5314 assessed as increase in obtusifoliol level at 0.008 ug/ml incubated for 8 hrs by GC-MS analysis relative to control; set-up: scale not given: the % may be the effect or the level left; details: at 0.008 µg/mL
# [37] = molecular target: T1, Lanosterol 14-alpha demethylase; experiment: Inhibition of CYP51 in Candida albicans SC5314 assessed as increase in eburicol level at 0.008 ug/ml incubated for 8 hrs by GC-MS analysis relative to control; set-up: scale not given: the % may be the effect or the level left; details: at 0.008 µg/mL
# Cell membrane = experiment: Disruption of cell membrane integrity in Candida albicans SC5314 assessed as increase in increase in red fluorescence at 0.5 ug/ml incubated for 8 hrs by PI staining based fluorescence microscopic analysis; details: dose 0.5 µg/ml
# Candida albicans [38] = experiment: Antifungal activity in Candida albicans SC5314 assessed as inhibition of fungal growth incubated for 4 days by induction of resistance assay; format: functional; details: SC5314, 96 h, time 4 day
# Candida albicans [39] = experiment: Antifungal activity in Candida albicans SC5314 assessed as inhibition of fungal growth incubated for 17 days by induction of resistance assay; format: functional; details: SC5314, 408 h, time 17 day
# T1 sequence (P10613 whole entry): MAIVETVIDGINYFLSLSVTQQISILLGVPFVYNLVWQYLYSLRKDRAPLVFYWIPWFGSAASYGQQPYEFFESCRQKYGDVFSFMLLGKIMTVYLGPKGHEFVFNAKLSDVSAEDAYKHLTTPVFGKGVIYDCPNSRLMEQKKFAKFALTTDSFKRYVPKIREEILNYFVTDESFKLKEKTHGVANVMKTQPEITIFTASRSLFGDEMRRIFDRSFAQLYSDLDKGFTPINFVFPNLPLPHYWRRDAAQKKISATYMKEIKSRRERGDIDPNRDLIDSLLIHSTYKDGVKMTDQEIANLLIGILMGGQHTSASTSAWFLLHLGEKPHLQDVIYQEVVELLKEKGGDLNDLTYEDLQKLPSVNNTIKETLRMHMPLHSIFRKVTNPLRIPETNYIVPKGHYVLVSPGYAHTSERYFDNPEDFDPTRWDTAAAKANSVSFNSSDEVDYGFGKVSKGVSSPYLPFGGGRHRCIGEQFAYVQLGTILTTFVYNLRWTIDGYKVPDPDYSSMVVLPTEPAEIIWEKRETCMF
compound,measurement,setting,value
C[C@@H](n1ccc2cc(Cl)ccc2c1=O)[C@](O)(Cn1cnnn1)c1ccc(F)cc1F,MIC50,Candida albicans [1],< 0.008 µg/mL
same,MIC50,Candida parapsilosis,< 0.008 µg/mL
same,MIC50,Candida tropicalis [2],< 0.008 µg/mL
same,MIC50,Pichia kudriavzevii [3],0.031 µg/mL
same,MIC50,Nakaseomyces glabratus [4],< 0.008 µg/mL
same,MIC50,Cryptococcus neoformans [5],< 0.008 µg/mL
same,MIC50,Aspergillus fumigatus,2 µg/mL
same,MIC50,[Candida] auris [6],0.5 µg/mL
same,MIC50,[Candida] auris [7],0.25 µg/mL
same,MIC50,[Candida] auris [8],< 0.125 µg/mL
same,MIC50,[Candida] auris [9],< 0.125 µg/mL
same,MIC50,[Candida] auris [10],0.5 µg/mL
same,MIC50,[Candida] auris [11],1 µg/mL
same,Activity,Candida albicans [12],Active
same,Activity,Cryptococcus neoformans [13],Active
same,Activity,Nakaseomyces glabratus [14],Active
same,Activity,Pichia kudriavzevii [15],Active
same,Activity,Candida tropicalis [16],Active
same,inhibition,Candida albicans [17],Dose-Dependent Effect
same,inhibition at 0.008 µg/mL,Candida albicans [18],> 70%
same,half-life,[19],4.28 h
same,AUC(0-t),[20],18500 ng·h/mL
same,clearance,[21],3.27 mL/min/kg
same,MRT last,[22],3.27 h
same,Vd,[23],1.23 L/kg
same,Cmax,[24],2630 ng/mL
same,Tmax,[25],2 h
same,half-life,[26],6.71 h
same,AUC(0-t),[27],13600 ng·h/mL
same,MRT last,[28],3.66 h
same,bioavailability,[29],36.8%
same,Activity,Candida albicans [30],2.92 log10CFU/g
same,Activity,Candida albicans [31],2.25 log10CFU/g
same,Activity,Candida albicans [32],Dose-Dependent Effect
same,MST,Candida albicans [33],8.5 days
same,MST,Candida albicans [34],10 days
same,Activity,Erythrocyte,Non-Toxic
same,inhibition (INH),[35],Active
same,Activity,[36],19.33%
same,Activity,[37],24.85%
same,Activity,Cell membrane,Active
same,MIC,Candida albicans [38],0.016 µg/mL
same,MIC,Candida albicans [39],0.125 µg/mL
